Measurements published in patent US9873704B2, “Heterocyclic compounds and their uses” (Amgen Inc., priority 2009, dated 2018).

target: T1, PI3Kδ (Homo sapiens, UniProt O00329); assay: PI3Kδ Alphascreen assay; assay type: biochemical
T1 construct: Full length p110 subunits of PI3k α, β and δ, N-terminally labeled with polyHis tag; polyHis (N); made in house; host or cells: Sf9 insect cells (baculovirus)
Description: Full length p110 subunits of PI3k α, β and δ, N-terminally labeled with polyHis tag, were coexpressed with p85 with Baculo virus expression vectors in sf9 insect cells. P110/p85 heterodimers were purified by sequential Ni-NTA, Q-HP, Superdex-100 chromatography. Purified α, β and δ isozymes were stored at −20° C. in 20 mM Tris, pH 8, 0.2M NaCl, 50% glycerol, 5 mM DTT, 2 mM Na cholate. […] The γ isozyme was purified by sequential Ni-NTA, Superdex-200, Q-HP chromatography. The γ isozyme was stored frozen at −80° C. in NaH2PO4, pH 8, 0.2M NaCl, 1% ethylene glycol, 2 mM β-mercaptoethanol.
A PI3K Alphascreen® assay (PerkinElmer, Waltham, Mass.) was used to measure the activity of a panel of four phosphoinositide 3-kinases: PI3Kα, PI3Kβ, PI3Kγ, and PI3Kδ. Enzyme reaction buffer was prepared using sterile water (Baxter, Deerfield, Ill.) and 50 mM Tris HCl pH 7, 14 mM MgCl2, 2 mM sodium cholate, and 100 mM NaCl. 2 mM DTT was added fresh the day of the experiment. The Alphascreen buffer was made using sterile water and 10 mM Tris HCl pH 7.5, 150 mM NaCl, 0.10% Tween 20, and 30 mM EDTA. 1 mM DTT was added fresh the day of the experiment. Compound source plates used for this assay were 384-well Greiner clear polypropylene plates containing test compounds at 5 mM and diluted 1:2 over 22 concentrations. Columns 23 and 24 contained only DMSO as these wells comprised the positive and negative controls, respectively. Source plates were replicated by transferring 0.5 uL per well into 384-well Optiplates (PerkinElmer, Waltham, Mass.).
Each PI3K isoform was diluted in enzyme reaction buffer to 2× working stocks. […] PI(4,5)P2 (Echelon Biosciences, Salt Lake City, Utah) was diluted to 10 μM and ATP was diluted to 20 μM. This 2× stock was used in the assays for PI3Kα and PI3Kβ. For assay of PI3Kγ and PI3Kδ, PI(4,5)P2 was diluted to 10 μM and ATP was diluted to 8 μM to prepare a similar 2× working stock. Alphascreen reaction solutions were made using beads from the anti-GST Alphascreen kit (PerkinElmer, Waltham, Mass.). Two 4× working stocks of the Alphascreen reagents were made in Alphascreen reaction buffer. In one stock, biotinylated-IP4 (Echelon Biosciences, Salt Lake City, Utah) was diluted to 40 nM and streptavidin-donor beads were diluted to 80 μg/mL. In the second stock, PIP3-binding protein (Echelon Biosciences, Salt Lake City, Utah) was diluted to 40 nM and anti-GST-acceptor beads were diluted to 80 μg/mL.
10 μL/well of the appropriate substrate 2× stock (containing 20 μM ATP for the PI3Kα and β assays and containing 8 μM ATP for the PI3Kγ and δ assays) was then added to Columns 1-24 of all plates. Plates were then incubated at room temperature for 20 minutes. In the dark, 10 μL/well of the donor bead solution was added to columns 1-24 of the plates to quench the enzyme reaction. The plates were incubated at room temperature for 30 minutes. Still in the dark, 10 μL/well of the acceptor bead solution was added to columns 1-24 of the plates. The plates were then incubated in the dark for 1.5 hours. The plates were read on an Envision multimode Plate Reader (PerkinElmer, Waltham, Mass.) using a 680 nm excitation filter and a 520-620 nm emission filter.

T1 sequence (O00329 whole entry): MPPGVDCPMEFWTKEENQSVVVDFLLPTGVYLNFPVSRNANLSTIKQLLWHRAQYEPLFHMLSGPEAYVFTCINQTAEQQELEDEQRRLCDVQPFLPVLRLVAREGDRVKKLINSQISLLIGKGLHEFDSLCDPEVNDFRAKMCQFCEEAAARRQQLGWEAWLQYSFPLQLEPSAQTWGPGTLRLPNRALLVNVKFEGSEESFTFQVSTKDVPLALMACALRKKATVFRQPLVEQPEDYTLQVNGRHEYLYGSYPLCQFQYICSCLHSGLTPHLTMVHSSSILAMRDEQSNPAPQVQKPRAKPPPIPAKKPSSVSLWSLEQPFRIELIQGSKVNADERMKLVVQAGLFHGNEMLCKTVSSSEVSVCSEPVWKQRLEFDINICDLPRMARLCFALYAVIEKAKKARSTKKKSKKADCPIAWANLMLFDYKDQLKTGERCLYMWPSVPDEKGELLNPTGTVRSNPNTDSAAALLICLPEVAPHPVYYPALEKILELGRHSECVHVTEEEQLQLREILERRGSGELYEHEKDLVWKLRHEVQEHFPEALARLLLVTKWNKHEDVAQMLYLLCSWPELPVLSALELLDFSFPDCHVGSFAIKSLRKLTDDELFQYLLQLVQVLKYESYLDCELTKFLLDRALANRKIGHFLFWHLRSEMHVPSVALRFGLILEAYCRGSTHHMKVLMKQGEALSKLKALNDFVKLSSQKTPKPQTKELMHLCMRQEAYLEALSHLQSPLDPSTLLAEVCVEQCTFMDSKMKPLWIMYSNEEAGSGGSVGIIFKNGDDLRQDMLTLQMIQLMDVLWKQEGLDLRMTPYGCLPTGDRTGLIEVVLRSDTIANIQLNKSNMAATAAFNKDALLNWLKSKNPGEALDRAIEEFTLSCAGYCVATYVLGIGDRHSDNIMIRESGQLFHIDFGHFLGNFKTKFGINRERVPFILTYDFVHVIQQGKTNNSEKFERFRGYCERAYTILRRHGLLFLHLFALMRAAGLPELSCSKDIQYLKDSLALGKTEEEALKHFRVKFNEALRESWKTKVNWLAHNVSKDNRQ
T1 sequence (P27986 whole entry partner): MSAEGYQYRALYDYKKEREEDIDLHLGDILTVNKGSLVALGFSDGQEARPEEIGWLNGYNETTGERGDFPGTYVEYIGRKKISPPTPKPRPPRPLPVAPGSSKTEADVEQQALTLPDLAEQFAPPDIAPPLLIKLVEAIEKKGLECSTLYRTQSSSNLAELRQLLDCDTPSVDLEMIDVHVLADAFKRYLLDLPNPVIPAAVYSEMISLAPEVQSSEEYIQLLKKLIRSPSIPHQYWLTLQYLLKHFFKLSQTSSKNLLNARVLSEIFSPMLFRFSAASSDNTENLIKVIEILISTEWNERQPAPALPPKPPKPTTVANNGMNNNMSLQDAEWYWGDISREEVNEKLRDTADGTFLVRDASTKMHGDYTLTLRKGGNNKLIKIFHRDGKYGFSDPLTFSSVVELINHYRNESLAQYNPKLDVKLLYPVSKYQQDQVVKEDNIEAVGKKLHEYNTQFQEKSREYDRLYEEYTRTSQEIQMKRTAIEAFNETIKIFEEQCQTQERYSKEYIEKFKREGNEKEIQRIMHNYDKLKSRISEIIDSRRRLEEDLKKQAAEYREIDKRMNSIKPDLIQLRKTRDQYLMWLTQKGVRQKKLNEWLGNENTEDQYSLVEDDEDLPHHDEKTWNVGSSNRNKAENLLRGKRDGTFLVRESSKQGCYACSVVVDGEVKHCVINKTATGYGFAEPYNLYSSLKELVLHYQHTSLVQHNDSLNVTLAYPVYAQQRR

Compound	Ki [nM]
N#Cc1c(N)ncnc1NCc1nc2cccc(F)c2cc1-c1ccccc1 [4-Amino-6-((5-fluoro-3-phenylquinolin-2-yl)methylamino)pyrimidine-5-carbonitrile]	107
CS(=O)(=O)c1ccccc1-c1cc2cccc(F)c2nc1CNc1ncnc(N)c1C#N [4-Amino-6-((8-fluoro-3-(2-(methylsulfonyl)phenyl)quinolin-2-yl)methylamino)-pyrimidine-5-carbonitrile]	30.7
N#Cc1c(N)ncnc1NCc1nc2c(F)cccc2cc1-c1ccccn1 [4-Amino-6-((8-fluoro-3-(pyridin-2-yl)quinolin-2-yl)methyl-amino)pyrimidine-5-carbonitrile]	262
CC(Nc1ncnc(N)c1C#N)c1nc2ccc(F)cc2c(C(=O)N2CCOCC2)c1-c1ccccc1 (centres unmarked) [4-Amino-6-((-1-(6-fluoro-4-(4-morpholinylcarbonyl)-3-phenyl-2-quinolinyl)-ethyl)amino)-5-pyrimidinecarbonitrile]	2.88
CC(Nc1ncnc(N)c1C#N)c1nc2ccc(F)cc2c(C(=O)N2CC[C@H](O)C2)c1-c1ccccc1 (stereo partly drawn) [4-Amino-6-((-1-(6-fluoro-4-(((3S)-3-hydroxy-1-pyrrolidinyl)carbonyl)-3-phenyl-2-quinolinyl)ethyl)amino)-5-pyrimidinecarbonitrile]	1.02
C[C@H](c1nc2ccc(F)cc2cc1-c1cncc(F)c1)n1nc(C#N)c2c(N)ncnc21 [4-amino-1-((R)-1-(6-fluoro-3-(5-fluoropyridin-3-yl)quinolin-2-yl)ethyl)-1H-pyrazolo[3,4-d]pyrimidine-3-carbonitrile]	5470
CC(Nc1ncnc(N)c1C#N)c1nc2ccc(F)cc2c([S@@+]([O-])CCO)c1-c1ccccc1 (stereo partly drawn) [4-amino-6-(1-(6-fluoro-4-((S)-2-hydroxyethylsulfinyl)-3-phenylquinolin-2-yl)ethylamino)pyrimidine-5-carbonitrile]	1.8
CC(Nc1ncnc(N)c1C#N)c1nc2ccc(F)cc2c(CO)c1-c1ccccc1 (centres unmarked) [4-amino-6-(1-(6-fluoro-4-(hydroxymethyl)-3-phenylquinolin-2-yl)ethylamino)pyrimidine-5-carbonitrile]	1.68
CC(Nc1ncnc(N)c1C#N)c1nc2ccc(F)cc2c(N2CCOCC2)c1-c1ccccn1 (centres unmarked) [4-amino-6-(1-(6-fluoro-4-morpholino-3-(pyridin-2-yl)quinolin-2-yl)ethyl-amino)pyrimidine-5-carbonitrile]	1.19
CSc1c(-c2ccccc2)c(C(C)Nc2ncnc(N)c2C#N)nc2ccc(F)cc12 (centres unmarked) [4-amino-6-((1-(6-fluoro-4-(methylsulfanyl)-3-phenyl-2-quinolinyl)ethyl)amino)-5-pyrimidinecarbonitrile]	2.4
C[C@@H](Nc1ncnc(N)c1C#N)c1nc2cccc(Cl)c2cc1-c1ccccn1 [4-amino-6-(((1R)-1-(5-chloro-3-(2-pyridinyl)-2-quinolinyl)ethyl)amino)-5-pyrimidinecarbonitrile]	57.9
C[C@@H](Nc1ncnc(N)c1C#N)c1nc2cccc(F)c2c(S(C)(=O)=O)c1-c1ccccc1 [4-amino-6-(((1R)-1-(5-fluoro-4-(methylsulfonyl)-3-phenyl-2-quinolinyl)ethyl)amino)-5-pyrimidinecarbonitrile]	466
C[C@H](Nc1ncnc(N)c1C#N)c1nc2ccc(F)cc2c(C(=O)N2CCOCC2)c1-c1ccccc1 [4-amino-6-(((1S)-1-(6-fluoro-4-(4-morpholinylcarbonyl)-3-phenyl-2-quinolinyl)ethyl)amino)-5-pyrimidinecarbonitrile]	0.505
C[C@H](Nc1ncnc(N)c1C#N)c1nc2ccc(F)cc2c(C(=O)N2CC[C@H](O)C2)c1-c1ccccc1 [4-amino-6-(((1S)-1-(6-fluoro-4-(((3S)-3-hydroxy-1-pyrrolidinyl)carbonyl)-3-phenyl-2-quinolinyl)ethyl)amino)-5-pyrimidinecarbonitrile]	0.657
CC(Nc1ncnc(N)c1C#N)c1nc2ccc(F)cc2c(CN2CCOCC2)c1-c1ccccc1 (centres unmarked) [4-amino-6-((-1-(6-fluoro-4-(4-morpholinylmethyl)-3-phenyl-2-quinolinyl)ethyl)amino)-5-pyrimidinecarbonitrile]	1.31
C[C@H](c1nc2ccc(F)cc2cc1-c1ccccn1)n1nc(C#N)c2c(N)ncnc21 [(R)-4-amino-1-(1-(6-fluoro-3-(pyridin-2-yl)quinolin-2-yl)ethyl)-1H-pyrazolo[3,4-d]pyrimidine-3-carbonitrile]	320
C[C@@H](Nc1ncnc2[nH]cnc12)c1nc2ccc(F)cc2cc1-c1ccccn1 [(R)—N-(1-(6-fluoro-3-(pyridin-2-yl)quinolin-2-yl)ethyl)-9H-purin-6-amine]	217
C[C@@H](Nc1ncnc2[nH]cnc12)c1nc2ccc(F)cc2c(S(C)(=O)=O)c1-c1ccccc1 [(R)—N-(1-(6-fluoro-4-(methylsulfonyl)-3-phenylquinolin-2-yl)ethyl)-9H-purin-6-amine]	410
C[C@H](Nc1ncnc(N)c1C#N)c1nc2ccc(F)cc2c(C(=O)NCCO)c1-c1ccccn1 [(S)-2-(1-(6-Amino-5-cyanopyrimidin-4-ylamino)ethyl)-6-fluoro-N-(2-hydroxyethyl)-3-(pyridin-2-yl)quinoline-4-carboxamide]	7.57

Next, values leading:

Ki [nM]	Compound
12.3	N#Cc1c(N)ncnc1NCc1nc2c(F)cccc2cc1-c1ccccc1 [4-Amino-6-((8-fluoro-3-phenylquinolin-2-yl)methylamino)pyrimidine-5-carbonitrile]
62.2	COCCNc1c(-c2ccccc2)c([C@@H](C)Nc2ncnc(N)c2C#N)nc2ccc(F)cc12 [4-Amino-6-(((1R)-1-(6-fluoro-4-((2-methoxyethyl)amino)-3-phenyl-2-quinolinyl)ethyl)amino)-5-pyrimidinecarbonitrile]
0.4	C[C@H](Nc1ncnc(N)c1C#N)c1nc2cccc(Cl)c2cc1-c1ccccn1 [4-Amino-6-(((1S)-1-(5-chloro-3-(2-pyridinyl)-2-quinolinyl)ethyl)amino)-5-pyrimidinecarbonitrile]
0.226	C[C@H](Nc1ncnc(N)c1C#N)c1nc2ccc(F)cc2c(NCCS(C)(=O)=O)c1-c1ccccc1 [4-Amino-6-(((1S)-1-(6-fluoro-4-((2-(methylsulfonyl)ethyl)amino)-3-phenyl-2-quinolinyl)ethyl)amino)-5-pyrimidinecarbonitrile]
0.61	COCCNc1c(-c2ccccc2)c([C@H](C)Nc2ncnc(N)c2C#N)nc2ccc(F)cc12 [4-Amino-6-(((1S)-1-(6-fluoro-4-((2-methoxyethyl)amino)-3-phenyl-2-quinolinyl)ethyl)amino)-5-pyrimidinecarbonitrile]
1.4	CC(Nc1ncnc(N)c1C#N)c1nc2ccc(F)cc2c(N(C)C)c1-c1ccccn1 (centres unmarked) [4-amino-6-(1-(4-(dimethylamino)-6-fluoro-3-(pyridin-2-yl)quinolin-2-yl)ethylamino)pyrimidine-5-carbonitrile]
1.3	CC(Nc1ncnc(N)c1C#N)c1nc2ccc(F)cc2c(S(C)(=O)=O)c1-c1ccccc1 (centres unmarked) [4-amino-6-(1-(6-fluoro-4-(methylsulfonyl)-3-phenylquinolin-2-yl)ethylamino)pyrimidine-5-carbonitrile]
0.741	C[C@H](Nc1ncnc(N)c1C#N)c1nc2ccc(F)cc2c(S(C)(=O)=O)c1-c1ccccc1 [4-amino-6-(((1S)-1-(6-fluoro-4-(methylsulfonyl)-3-phenyl-2-quinolinyl)ethyl)amino)-5-pyrimidinecarbonitrile]
1.6	CC(Nc1ncnc(N)c1C#N)c1nc2cccc(Cl)c2cc1-c1ccccn1 [4-amino-6-(((1S, 1R)-1-(5-chloro-3-(2-pyridinyl)-2-quinolinyl)ethyl)-amino)-5-pyrimidinecarbonitrile]
271	COc1c(-c2ccccc2)c([C@@H](C)Nc2ncnc(N)c2C#N)nc2ccc(F)cc12 [(R)-4-amino-6-(1-(6-fluoro-4-methoxy-3-phenylquinolin-2-yl)ethylamino)pyrimidine-5-carbonitrile]
